Results: the NIST ThermoML archive (doi:10.1021/je100581m)

Test: xn = mol fraction of the nth substance listed
Conditions: Liquid, Vibrating tube method

C=CC(C)(O)CCC=C(C)C (stereo not given) [3,7-dimethyl-1,6-octadien-3-ol] + CCCO
mass density [kg/m3]
Conditions	x2 = 0	x2 = 0.107	x2 = 0.206	x2 = 0.3066	x2 = 0.4064	x2 = 0.501	x2 = 0.6034	x2 = 0.7055	x2 = 0.7985	x2 = 0.898
283.15 K, 100 kPa	869.5	867	864.9	862.1	859	855.4	850.3	843.7	835.9	825.2
283.15 K, 5000 kPa	872.6	870.2	868.1	865.4	862.2	858.6	853.6	847	839.3	828.8
283.15 K, 10000 kPa	875.7	873.1	871	868.3	865.2	861.6	856.7	850	842.4	832
283.15 K, 15000 kPa	878.7	876.2	874.1	871.4	868.3	864.8	859.9	853.3	845.8	835.5
283.15 K, 20000 kPa	881.5	879	876.9	874.4	871.3	867.7	862.8	856.3	848.8	838.6
298.15 K, 100 kPa	857.3	854.8	852.7	849.9	846.8	843.2	838.2	831.6	824	813.4
298.15 K, 5000 kPa	860.6	858.1	856	853.3	850.2	846.7	841.7	835.1	827.7	817.2
298.15 K, 10000 kPa	863.9	861.4	859.4	856.6	853.6	850.1	845.2	838.7	831.2	820.8
298.15 K, 15000 kPa	867	864.6	862.6	859.9	856.8	853.3	848.5	842	834.6	824.4
298.15 K, 20000 kPa	870	867.7	865.6	863	859.9	856.5	851.6	845.2	837.9	827.8
